Reference: paper PMC7443224, “An UPLC-MS/MS Method for Simultaneous Quantification of the Components of Shenyanyihao Oral Solution in Rat Plasma” (BioMed Research International, 2020)
“And” between values parts separate entries of the source, which are not always exact repeats. Identical values can stand only once.

Experiment: Pharmacokinetic study in rat plasma after oral administration of Shenyanyihao oral solution (UPLC-MS/MS, noncompartmental)
Assay type: in vivo, Sprague-Dawley rats
Settings: for Cmax / Tmax / half-life / MRT: male, Sprague-Dawley; for Cmax: plasma; for MRT: read-out: MRT0‐∞
Procedure: Male Sprague-Dawley rats (180–220 g) were purchased from Shanghai SLAC Laboratory Animal Co., Ltd. (Shanghai, China) and housed in an environmentally controlled room with a natural light-dark cycle for 7 days before the experiment was carried out. The male Sprague-Dawley rats were randomly given a dose of 10 g/kg/day of Shenyanyihao oral solution by oral administration for pharmacokinetic experiments. All animal experiments were carried out according to the Guidelines for the Care and Use of Laboratory Animals and were approved by the Animal Ethics Committee of the Second Military Medical University.
The protein precipitation with methanol was applied for sample preparation. 50 μl of plasma spiked with 50 μl of mixed IS solution were thoroughly mixed with 100 μl methanol by vortexing for 30 s. The mixture was centrifuged at 12,000 rpm for 5 min. An aliquot of 100 μl from the supernatant was transferred and subsequently evaporated to dryness by vacuum concentration. Five μl of the supernatant was transferred for the UPLC-MS/MS analysis.
The analytes in plasma were measured by a simple and sensitive UPLC-MS/MS method. Chromatographic analysis was performed on an Agilent 1290 Infinity UPLC system consisting of a binary pump, a surveyor autosampling system, and a thermostatted column compartment. An Agilent Poroshell 120 EC-C18 column (3.0 mm × 100 mm, 2.7 μm) was used for chromatographic separation. The mobile phases of A (acetonitrile) and B (0.1% formic acid aqueous solution) were eluted at a flow rate of 0.4 ml/min with the following gradient conditions: 0-5 min, 50% A; 5-6 min, 50%-90% A; and 6-10 min, 90% A. The column temperature was maintained at 25°C, the autosampler was conditioned at 4°C, and the injection volume was 5 μl. The analysis time was 10 min per sample. An Agilent 6470 tandem mass spectrometer (Agilent Technologies, USA) equipped with an Agilent Jet Stream Technology (AJS) electrospray source interface (ESI) was used for MS detection. The mass spectrometric detection was optimized simultaneously in the positive and negative ion modes by multiple reaction monitoring (MRM). The main MS parameters of the ionized chamber are as follows: capillary voltage at 4000 V (positive)/3500 V (negative), gas temperature at 350°C, drying gas flow at 11 l/min, nebulizer pressure at 40 psi, sheath gas temperature at 400°C, and sheath gas flow at 11 l/min. Data acquisition and analysis were performed using the Agilent MassHunter WorkStation version B.07.00.
The rats were administered orally with Shenyanyihao oral solution. Blood samples from the ophthalmic venous plexus taken at 0.08, 0.17, 0.25, 0.33, 0.5, 1, 1.5, 2, 4, 6, 8, 12, 24, and 48 h after oral administration and at 0 h (predose) were collected (0.2 ml) into heparinized centrifuge tubes. The blood samples were immediately centrifuged at 4000 rpm at 4°C for 5 min, and the supernatant plasma was transferred into another tube and stored at -80°C until treatment.
Pharmacokinetic parameters were analyzed by a noncompartmental method using the WinNonlin7.0 pharmacokinetic program (Pharsight Corp., USA). The maximum concentration (Cmax) and time to reach the maximum concentration (Tmax ) were measured from values obtained from the concentration-time curve. All results were expressed as mean ± standard deviation (SD).

[1] = rat, po, 10 g/kg/day, rat plasma, oral administration of Shenyanyihao oral solution 10 g/kg/day, n = 6, mean ± SD
[2] = rat plasma, oral administration of Shenyanyihao oral solution 10 g/kg/day, n = 6, mean ± SD

Compound | Cmax [1] | Tmax [2] | half-life [2] | MRT [2] | AUC0‐t [2] | AUC0‐∞ [2] | AUMC0‐∞ [2] | C max [2] | CL [2] | V d [2] | AUC0‐t (rat, in vivo, po, 10 g/kg/day) | AUC0‐∞ (rat, in vivo, po, 10 g/kg/day) | MRT0‐∞ (rat, in vivo, po, 10 g/kg/day) | V d (rat, in vivo, po, 10 g/kg/day) | MRT0‐∞ [2] | t 1/2 [2] | T max [2] | C max (rat plasma, oral administration of Shenyanyihao oral solution 10 g/kg/day, n = 6, mean ± SD, listed as stachydine)
O=C(O)[C@H]1O[C@@H](Oc2cc3oc(-c4ccccc4)cc(=O)c3c(O)c2O)[C@H](O)[C@@H](O)[C@@H]1O [Baicalin, baicalin] | > 2500 ng/mL | 2.8 ± 1.1 h | 5.01 ± 0.52 h | 8.71 ± 2 h | 26525.1 ± 15523.7 ng/ml∗h | 26566.8 ± 15520.4 ng/ml∗h | 229094.2 ± 146621.6 ng/ml∗h^2 | 2983.4 ± 1344.3 ng/mL | 28.5 ± 15 mL/min/kg | 12.89 ± 8.01 L/kg | – | – | – | – | – | – | – | –
O=C(O)c1ccc(O)c(O)c1 [Protocatechuic acid, protocatechuic acid] | 26.2 ± 11.6 ng/mL | 0.5 h | 11.3 ± 2.23 h | 6.6 ± 2.26 h | 41.96 ± 11.42 ng/ml∗h | 45.80 ± 12.60 ng/ml∗h | 307.02 ± 152.54 ng/ml∗h^2 | – | 25.3 ± 7.83 mL/min/kg | 24.09 ± 4.86 L/kg | – | – | – | – | – | – | – | –
O=c1c(O[C@@H]2O[C@H](CO)[C@@H](O)[C@H](O)[C@H]2O)c(-c2ccc(O)c(O)c2)oc2cc(O)cc(O)c12 [Isoquercitrin, isoquercitrin] | 1.65 ± 0.23 ng/mL | 0.5 h | 26.4 ± 3.89 h | 33.7 ± 3.63 h | 4.75 ± 0.68 ng/ml∗h | 8.98 ± 1.33 ng/ml∗h | 304.35 ± 69.29 ng/ml∗h^2 | – | 56.7 ± 8.33 mL/min/kg | 127.91 ± 13.82 L/kg | – | – | – | – | – | – | – | –
COc1cc(/C=C/C(=O)O)ccc1O [Ferulic acid, ferulic acid] | – | – | – | – | – | – | – | – | – | – | 76.39 ± 21.43 ng/ml∗h | 95.70 ± 25.36 ng/ml∗h | 12.50 ± 4.16 h | 18.01 ± 5.2 L/kg | – | – | – | –
O=c1cc(-c2ccccc2)oc2cc(O)c(O)c(O)c12 [Baicalein, baicalein] | 14.2 ± 2.59 ng/mL | 3.6 ± 0.89 h | 11.7 ± 4.78 h | 15.2 ± 5.91 h | 106.77 ± 46.19 ng/ml∗h | 128.95 ± 53.59 ng/ml∗h | 2190.95 ± 1741.10 ng/ml∗h^2 | – | 145 ± 50.5 mL/min/kg | 131.54 ± 23.79 L/kg | – | – | – | – | – | – | – | –
O=C(O)[C@H](O)Cc1ccc(O)c(O)c1 [Danshensu] | – | – | – | – | 556.04 ng/ml∗h and 556.04 ± 165.66 ng/ml∗h | 569.72 ng/ml∗h and 569.72 ± 165.31 ng/ml∗h | 2049.56 ± 1061.35 ng/ml∗h^2 | 181.79 ± 59.58 ng/mL | 41.2 ± 14.3 mL/min/kg | 13.67 ± 8.51 L/kg | – | – | – | – | 3.56 ± 1.71 h | 3.91 ± 2.34 h | – | –
O=C(/C=C/c1ccc(O)c(O)c1)O[C@@H]1C[C@](O)(C(=O)O)C[C@@H](O)[C@H]1O [Chlorogenic acid, chlorogenic acid] | 3.53 ± 0.52 ng/mL | – | 16.7 ± 3.32 h | 15.4 ± 3.31 h | 17.05 ± 2.86 ng/ml∗h | 21.95 ± 3.34 ng/ml∗h | 338.84 ± 99.46 ng/ml∗h^2 | – | 697.2 ± 113 mL/min/kg | 1001.03 ± 202.53 L/kg | – | – | – | – | – | – | – | –
O=C(/C=C/c1ccc(O)c(O)c1)O[C@H]1[C@H](O[C@@H]2O[C@H](CO)[C@@H](O)[C@H](O)[C@H]2O)[C@@H](O)[C@H](OCCc2ccc(O)c(O)c2)O[C@@H]1CO [Plantamajoside, plantamajoside] | – | – | – | – | 3.99 ± 0.44 ng/ml∗h | 5.01 ± 0.71 ng/ml∗h | 66.31 ± 28.63 ng/ml∗h^2 | 1.31 ± 0.23 ng/mL | 78 ± 12.8 mL/min/kg | 79.97 ± 18.00 L/kg | – | – | – | – | 12.76 ± 4.47 h | 12.33 ± 3.92 h | 1.40 ± 0.22 h | –
C[N+]1(C)CCC[C@H]1C(=O)[O-] [Stachydrine, stachydrine] | – | – | – | – | 39256.8 ± 4031.7 ng/ml∗h | 40196.0 ± 4088.2 ng/ml∗h | 515393.7 ± 55002.7 ng/ml∗h^2 | 2673.0 ± 163.0 ng/mL | 1 ± 0.17 mL/min/kg | 0.76 ± 0.11 L/kg | – | – | – | – | 12.82 ± 0.25 h | 9.09 ± 0.51 h | 3.20 ± 1.10 h | > 2500 ng/mL
